From paper PMC10066322 (Scientific Reports, 2023)

Columns and labels:
PARN1-430 = target: T1, PARN1-430 (Homo sapiens, UniProt O95453); assay: Inhibition fluorescence assay (FAM-RNA / BHQ quencher deadenylase assay); assay type: biochemical
T1 construct: expression of the C-terminal truncated protein (1-430 aa of PARN) was soluble; His tag (from the pCold I vector); made in house; host or cells: E. coli Rosetta 2 DE
T1 sequence (O95453 1-430): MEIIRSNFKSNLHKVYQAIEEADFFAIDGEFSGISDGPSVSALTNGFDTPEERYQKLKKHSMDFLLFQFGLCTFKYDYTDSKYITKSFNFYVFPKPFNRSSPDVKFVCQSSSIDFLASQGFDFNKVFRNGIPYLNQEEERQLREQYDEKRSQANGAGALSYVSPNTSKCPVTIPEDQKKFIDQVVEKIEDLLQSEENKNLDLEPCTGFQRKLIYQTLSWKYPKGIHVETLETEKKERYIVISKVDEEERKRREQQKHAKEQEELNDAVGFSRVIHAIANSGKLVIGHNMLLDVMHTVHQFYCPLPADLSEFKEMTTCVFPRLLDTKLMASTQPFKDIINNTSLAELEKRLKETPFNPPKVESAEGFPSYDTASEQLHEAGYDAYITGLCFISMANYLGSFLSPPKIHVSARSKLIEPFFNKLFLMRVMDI
Experimental: To easily screen compounds for inhibition of PARN activity, we developed an assay in which fluorescence was used as the readout for monitoring PARN1-430’s activity (Fig. 3a). This assay was modeled on a similar assay developed for Caf1/CNOT7 deadenylase. In this assay, PARN1-430 was incubated with a 5′-fluorescently labeled oligoadenylated RNA. In the absence of deadenylation, this substrate RNA can effectively hybridize to a complementary DNA oligonucleotide with a quencher on its 3′ end leading to a loss of fluorescence (Fig. 3a). When the RNA substrate is deadenylated, the quenching oligonucleotide is no longer able to stably hybridize leading to an increase in fluorescence in the reaction.
Figure 3 Developing a fluorescence assay for PARN inhibition. (a) Cartoon depicting the inhibition fluorescence assay. Schematic diagram of the fluorescence-based deadenylase assay. The assay is based on a 5′ FAM-labelled RNA oligonucleotide substrate. After incubation of the substrate in the presence of PARN1-430, the reaction is stopped and a 3′ BHQ-labelled DNA oligonucleotide probe complementary to the RNA substrate is added. The fluorescence of intact substrate is quenched upon probe hybridization because of the proximity of the BHQ […]. In contrast, the BHQ-labelled probe cannot hybridize to the FAM-labelled reaction product allowing detection of FAM fluorescence. […] 2-way ANOVA, multiple comparisons test, average ± SD, n = 3 replicates. *P < 0.05, **P < 0.005, ***P < 0.001, ****P < 0.0001, n.s. was not indicated. […] Dotted-line represents RNA and RNA + Quencher data. One-way ANOVA, multiple comparisons test, average ± SD, n ≥ 3 replicates. *P < 0.05, **P < 0.005, ***P < 0.001, ****P < 0.0001, n.s. was not indicated. (d) PARN1-430 and PARNmut enzymatic activity measured at different time points. […] Dotted-line represents RNA and RNA + Quencher data. 2-way ANOVA, multiple comparisons test, average ± SD, n = 3 replicates. *P < 0.05, **P < 0.005, ***P < 0.001, ****P < 0.0001, n.s. was not indicated.
Quenched reaction was incubated at room temperature for 10–60 min and fluorescence was measured using Fluorescein wavelength measurement.

Hela cells = assay: Cell death assay (cell counting, with or without doxorubicin); assay type: cell-based, human
Experimental: Previous work has shown that PARN inhibition leads to cell death in combination with DNA damaging agent, which has been interpreted to occur through the induction of p53[11].
Cell counting were done 2 days post-treatment. For doxorubicin (EMD Millipore, 504042) treatment, doxorubicin (1 μM) was added to cells. Cells were collected and counted at 0 h and 24 h after treatment.

hTR levels in Hela cells = hTR levels in Hela cells by RT-qPCR; assay type: cell-based, human; conditions: 50 µM, 2 days, RT-qPCR vs DMSO
Experimental: (§1) 48 h after transfection/drug treatment, cells were collected for either RNA or protein analysis.
Extracted total RNA was reverse transcribed using Mir-X miRNA first strand synthesis kit (Taraka, Cat # 638315) to make cDNA and qPCR was perfomred with iQ SYBR Green Supermix (BioRad, Cat. No. 1708880) with […] (forward primer) and […] (reverse primer) for hTR. The RNA levels were normalized using 5S rRNA as a housekeeping gene.

[1] = system: PARN activity in Hela cells; assay: miR-21-5p levels in Hela cells by northern blotting (PARN inhibition in cells); assay type: cell-based, human; conditions: 2 days
Experimental: as §1
Total RNA was extracted from cell lysates using TriZol as per manufacturer’s protocol and DNAse treated. After quantification on Nanodrop, total RNA was separated on an acrylamide 7 M Urea gel. RNA was transferred to a nylon membrane (Nytran SPC, GE Healthcare) using semiwet transfer. After UV/EDC crosslinking, the blot was pre-hybridized and hybridized in PerfectHyb Plus Hybridization Buffer (Sigma Aldrich) at 42 °C. Northern probes have been previously described[11],[48]. After hybridization and washing in 2 × SSC 0.1% SDS wash buffer, blots were exposed to a cassette and imaged on a Typhoon FLA 9500 Phosphoimager. Band intensities were quantified using ImageJ and normalized to the U1 levels under each condition.

Compound: Cc1ccc(Nc2ncc3c(n2)N(C)C(=O)N(c2cc(NC(=O)c4cccc(C(F)(F)F)c4)ccc2C)C3)cn1 [GNF-7]
- IC50 (PARN1-430; GNF-7 on PARN1-430, 10 min pre-treatment, non-linear fit): 35 ± 15 µM
- inhibitory effect on PARN1-430, fluorescence assay (PARN1-430; among 15 docking compounds tested): strongest inhibitory effect
- PARN inhibitor in vitro (PARN1-430; computational docking compounds, fluorescence assay and gels, PARN1-430 pretreated with drug 10 min): Yes
- sensitivity of cells to doxorubicin (cell death) (Hela cells; Hela cells treated 2 days, then doxorubicin 1 μM for 24 h): increase the sensitivity
- cell growth compared to DMSO treatment (Hela cells; Hela cells, 25 μM, 2 days): growth defects
- hTR levels (hTR levels in Hela cells): decreased
- PARN inhibitor in cells ([1]; 50 μM): Yes
- miR-21-5p levels compared to the controls ([1]; 50 µM, northern blotting, DMSO control): ~ 35%
